# Data reported in US10004701B2, “Methods and compositions for treating infection” (UNIVERSITY OF ROCHESTER, priority 2012, dated 2018).
# Structures can show the parent of a compound that is named as a salt. Where two headings read alike, the source gives them in different places.
# How the values were obtained:
# Assay in all cases: AK assay 384-well format, Prestwick library screening
# [1] = system: E. faecium; format: cell-based, Enterococcus faecium; conditions: for fold induction at 50 µM: Enterococcus faecium, 3 h
# [2] = system: S. aureus strain USA300-0114; format: cell-based, Staphylococcus aureus; conditions: for fold induction at 50 µM: Staphylococcus aureus, USA300, 3 h
# [3] = system: K. pneumoniae; format: cell-based, Klebsiella pneumoniae; conditions: for fold induction at 50 µM: Klebsiella pneumoniae, 3 h
# [4] = system: A. baumannii strain 98-37-09; format: cell-based, Acinetobacter baumannii; conditions: for fold induction at 50 µM: Acinetobacter baumannii, 983709, 3 h
# [5] = system: P. aeruginosa; format: cell-based, Pseudomonas aeruginosa; conditions: for fold induction at 50 µM: Pseudomonas aeruginosa, 3 h
# [6] = system: E. cloacae; format: cell-based, Enterobacter cloacae; conditions: for fold induction at 50 µM: Enterobacter cloacae, 3 h
# [7] = system: E. coli; format: cell-based, Escherichia coli; conditions: for fold induction at 50 µM: Escherichia coli, 3 h
# [8] = 50 μM final drug concentration, cutoff for positive-scoring molecules 3-fold increase, read-out: AK-based Prestwick Library Screening Results, E. faecium (fold increase in extracellular AK activity)
# [9] = 50 μM final drug concentration, cutoff for positive-scoring molecules 3-fold increase, read-out: AK-based Prestwick Library Screening Results, S. aureus (fold increase in extracellular AK activity)
# [10] = 50 μM final drug concentration, cutoff for positive-scoring molecules 3-fold increase, read-out: AK-based Prestwick Library Screening Results, K. pneumoniae (fold increase in extracellular AK activity)
# [11] = 50 μM final drug concentration, cutoff for positive-scoring molecules 3-fold increase, read-out: AK-based Prestwick Library Screening Results, A. baumannii (fold increase in extracellular AK activity)
# [12] = 50 μM final drug concentration, cutoff for positive-scoring molecules 3-fold increase, read-out: AK-based Prestwick Library Screening Results, P. aeruginosa (fold increase in extracellular AK activity)
# [13] = 50 μM final drug concentration, cutoff for positive-scoring molecules 3-fold increase, read-out: AK-based Prestwick Library Screening Results, E. cloacae (fold increase in extracellular AK activity)
# [14] = 50 μM final drug concentration, cutoff for positive-scoring molecules 3-fold increase, read-out: AK-based Prestwick Library Screening Results, E. coli (fold increase in extracellular AK activity)
# [15] = planktonic E. faecium, 50 μM final drug concentration, cutoff for positive-scoring molecules 3-fold increase, read-out: AK-based Prestwick Library Screening Results, E. faecium (increase in extracellular AK activity)
# [16] = planktonic K. pneumoniae, 50 μM final drug concentration, cutoff for positive-scoring molecules 3-fold increase, read-out: AK-based Prestwick Library Screening Results, K. pneumoniae (increase in extracellular AK activity)
# [17] = planktonic A. baumannii, 50 μM final drug concentration, cutoff for positive-scoring molecules 3-fold increase, read-out: AK-based Prestwick Library Screening Results, A. baumannii (increase in extracellular AK activity)
# [18] = planktonic P. aeruginosa, 50 μM final drug concentration, cutoff for positive-scoring molecules 3-fold increase, read-out: AK-based Prestwick Library Screening Results, P. aeruginosa (increase in extracellular AK activity)
# [19] = planktonic E. cloacae, 50 μM final drug concentration, cutoff for positive-scoring molecules 3-fold increase, read-out: AK-based Prestwick Library Screening Results, E. cloacae (increase in extracellular AK activity)
smiles,measurement,setting,value
CN(C)CCCC1(c2ccc(F)cc2)OCc2cc(C#N)ccc21 (stereo not shown) [Citalopram Hydrobromide],fold induction at 50 µM,[1]; [8],1
same,fold induction at 50 µM,[2]; [9],1
same,fold induction at 50 µM,[3]; [10],0.9
same,fold induction at 50 µM,[4]; [11],0.9
same,fold induction at 50 µM,[5]; [12],1.2
same,fold induction at 50 µM,[6]; [13],1.5
same,fold induction at 50 µM,[7]; [14],1
COC(=O)Nc1nc2ccc(SC(C)C)cc2[nH]1 [Methiazole],"AK-based Prestwick library screening result, E. faecium (fold increase in extracellular AK activity)","[1]; planktonic E. faecium, 50 μM final drug concentration, positive cutoff 3-fold increase",0.5
same,"AK-based Prestwick library screening result, S. aureus (fold increase in extracellular AK activity)","[2]; planktonic S. aureus, 50 μM final drug concentration, positive cutoff 3-fold increase",1.3
same,"AK-based Prestwick library screening result, K. pneumoniae (fold increase in extracellular AK activity)","[3]; planktonic K. pneumoniae, 50 μM final drug concentration, positive cutoff 3-fold increase",0.4
same,"AK-based Prestwick library screening result, A. baumannii (fold increase in extracellular AK activity)","[4]; planktonic A. baumannii, 50 μM final drug concentration, positive cutoff 3-fold increase",0.5
same,"AK-based Prestwick library screening result, P. aeruginosa (fold increase in extracellular AK activity)","[5]; planktonic P. aeruginosa, 50 μM final drug concentration, positive cutoff 3-fold increase",0.5
same,"AK-based Prestwick library screening result, E. cloacae (fold increase in extracellular AK activity)","[6]; planktonic E. cloacae, 50 μM final drug concentration, positive cutoff 3-fold increase",1.3
same,"AK-based Prestwick library screening result, E. coli (fold increase in extracellular AK activity)","[7]; planktonic E. coli, 50 μM final drug concentration, […]",0.4
COc1ccc(C2CNC(=O)C2)cc1OC1CCCC1 (stereo not shown) [Rolipram],fold induction at 50 µM,[1]; [8],1
same,fold induction at 50 µM,[2]; [9],1.3
same,fold induction at 50 µM,[3]; [10],1
same,fold induction at 50 µM,[4]; [11],1.2
same,fold induction at 50 µM,[5]; [12],1.2
same,fold induction at 50 µM,[6]; [13],1.7
same,fold induction at 50 µM,[7]; [14],1.1
COc1cc(NC(C)CCCN)c2ncccc2c1 (stereo not shown) [Primaquine diphosphate],fold induction at 50 µM,"[1]; 50 μM final drug concentration, planktonic, cutoff for positive 3-fold increase, read-out: AK-based Prestwick Library Screening Results, E. faecium (fold increase in extracellular AK activity)",0.9
same,fold induction at 50 µM,"[2]; 50 μM final drug concentration, planktonic, cutoff for positive 3-fold increase, read-out: AK-based Prestwick Library Screening Results, S. aureus (fold increase in extracellular AK activity)",2.1
same,fold induction at 50 µM,"[3]; 50 μM final drug concentration, planktonic, cutoff for positive 3-fold increase, read-out: AK-based Prestwick Library Screening Results, K. pneumoniae (fold increase in extracellular AK activity)",1
same,fold induction at 50 µM,"[4]; 50 μM final drug concentration, planktonic, cutoff for positive 3-fold increase, read-out: AK-based Prestwick Library Screening Results, A. baumannii (fold increase in extracellular AK activity)",1.1
same,fold induction at 50 µM,"[5]; 50 μM final drug concentration, planktonic, cutoff for positive 3-fold increase, read-out: AK-based Prestwick Library Screening Results, P. aeruginosa (fold increase in extracellular AK activity)",1
same,fold induction at 50 µM,"[6]; 50 μM final drug concentration, planktonic, cutoff for positive 3-fold increase, read-out: AK-based Prestwick Library Screening Results, E. cloacae (fold increase in extracellular AK activity)",1.4
CCCCC(CC)CNC(=N)NC(=N)NCCCCCCNC(=N)NC(=N)NCC(CC)CCCC (stereo not shown) [Alexidine dihydrochloride],fold induction at 50 µM,[1]; [8],7.4
same,fold induction at 50 µM,[3]; [10],23.4
same,fold induction at 50 µM,[4]; [11],12.3
same,fold induction at 50 µM,[5]; [12],19.2
same,fold induction at 50 µM,[6]; [13],1.5
same,fold induction at 50 µM,[7]; [14],43.3
O=c1cc(-c2ccc(O)cc2)oc2cc(O)cc(O)c12 [Apigenin],fold induction at 50 µM,[1]; [15],0.3
same,fold induction at 50 µM,[3]; [16],0.2
same,fold induction at 50 µM,[4]; [17],0.2
same,fold induction at 50 µM,[5]; [18],0.2
same,fold induction at 50 µM,[6]; [19],0.5
same,fold induction at 50 µM,"[7]; planktonic E. coli, 50 μM final drug concentration, cutoff for positive-scoring molecules 3-fold increase, read-out: AK-based Prestwick Library Screening Results, E. coli (increase in extracellular AK activity)",0.2
"[H]/N=C(\N/C(=N/[H])NCCCCCCNC(=N)NC(=N)Nc1ccc(Cl)cc1)Nc1ccc(Cl)cc1 [Chlorhexidine, chlorhexidine, reference compound]",fold induction at 50 µM,"[1]; planktonic E. faecium, 50 μM final drug concentration, 384-well, cutoff for positive-scoring molecules 3-fold increase, read-out: AK-based Prestwick Library Screening Results: E. faecium (increase in extracellular AK activity)",4
same,fold induction at 50 µM,"[3]; planktonic K. pneumoniae, 50 μM final drug concentration, 384-well, cutoff for positive-scoring molecules 3-fold increase, read-out: AK-based Prestwick Library Screening Results: K. pneumoniae (increase in extracellular AK activity)",18.8
same,fold induction at 50 µM,"[4]; planktonic A. baumannii, 50 μM final drug concentration, 384-well, cutoff for positive-scoring molecules 3-fold increase, read-out: AK-based Prestwick Library Screening Results: A. baumannii (increase in extracellular AK activity)",12.3
same,fold induction at 50 µM,"[5]; planktonic P. aeruginosa, 50 μM final drug concentration, 384-well, cutoff for positive-scoring molecules 3-fold increase, read-out: AK-based Prestwick Library Screening Results: P. aeruginosa (increase in extracellular AK activity)",23.8
same,fold induction at 50 µM,"[6]; planktonic E. cloacae, 50 μM final drug concentration, 384-well, cutoff for positive-scoring molecules 3-fold increase, read-out: AK-based Prestwick Library Screening Results: E. cloacae (increase in extracellular AK activity)",1.8
same,fold induction at 50 µM,"[7]; planktonic E. coli, 50 μM final drug concentration, 384-well, cutoff for positive-scoring molecules 3-fold increase, read-out: AK-based Prestwick Library Screening Results: E. coli (increase in extracellular AK activity)",50.1
O=C(O)CCCC[C@@H]1SC[C@@H]2NC(=O)N[C@@H]21 [Biotin],fold induction at 50 µM,[1]; [15],0.9
same,fold induction at 50 µM,"[2]; planktonic S. aureus, 50 μM final drug concentration, cutoff for positive-scoring molecules 3-fold increase, read-out: AK-based Prestwick Library Screening Results, S. aureus (increase in extracellular AK activity)",1.4
same,fold induction at 50 µM,[3]; [16],0.6
same,fold induction at 50 µM,[4]; [17],0.8
same,fold induction at 50 µM,[5]; [18],0.7
same,fold induction at 50 µM,[6]; [19],0.8
NNc1nncc2ccccc12 [Hydralazine hydrochloride],fold induction at 50 µM,"[1]; 50 μM final drug concentration, 384-well format, cutoff for positive-scoring molecules 3-fold increase, read-out: AK-based Prestwick Library Screening Results, E. faecium (increase in extracellular AK activity)",0.3
same,fold induction at 50 µM,"[2]; 50 μM final drug concentration, 384-well format, cutoff for positive-scoring molecules 3-fold increase, read-out: AK-based Prestwick Library Screening Results, S. aureus (increase in extracellular AK activity)",0.2
same,fold induction at 50 µM,"[4]; 50 μM final drug concentration, 384-well format, cutoff for positive-scoring molecules 3-fold increase, read-out: AK-based Prestwick Library Screening Results, A. baumannii (increase in extracellular AK activity)",0.1
same,fold induction at 50 µM,"[6]; 50 μM final drug concentration, 384-well format, cutoff for positive-scoring molecules 3-fold increase, read-out: AK-based Prestwick Library Screening Results, E. cloacae (increase in extracellular AK activity)",0.3
CCCCCCCCCCCCCCCC[N+](C)(C)CCN(Cc1ccc(OC)cc1)c1ncccn1 [Thonzonium bromide],fold induction at 50 µM,[1]; [8],7.5
same,fold induction at 50 µM,[3]; [10],4.7
same,fold induction at 50 µM,[4]; [11],5.6
same,fold induction at 50 µM,[5]; [12],1.5
same,fold induction at 50 µM,[6]; [13],1.8
same,fold induction at 50 µM,[7]; [14],3.2
O=C(NCCNCC(O)COc1ccc(O)cc1)N1CCOCC1 (stereo not shown) [Xamoterol hemifumarate],fold induction at 50 µM,"[1]; read-out: AK-based Prestwick Library Screening Results, E. faecium (fold increase in extracellular AK activity)",1
same,fold induction at 50 µM,"[2]; read-out: AK-based Prestwick Library Screening Results, S. aureus (fold increase in extracellular AK activity)",1.1
same,fold induction at 50 µM,"[3]; read-out: AK-based Prestwick Library Screening Results, K. pneumoniae (fold increase in extracellular AK activity)",0.8
same,fold induction at 50 µM,"[4]; read-out: AK-based Prestwick Library Screening Results, A. baumannii (fold increase in extracellular AK activity)",1
same,fold induction at 50 µM,"[5]; read-out: AK-based Prestwick Library Screening Results, P. aeruginosa (fold increase in extracellular AK activity)",1.2
same,fold induction at 50 µM,"[6]; read-out: AK-based Prestwick Library Screening Results, E. cloacae (fold increase in extracellular AK activity)",1.8
CN[C@H](CC(C)C)C(=O)N[C@H]1C(=O)N[C@@H](CC(N)=O)C(=O)N[C@H]2C(=O)N[C@H]3C(=O)N[C@H](C(=O)N[C@H](C(=O)O)c4cc(O)cc(O)c4-c4cc3ccc4O)[C@H](O)c3ccc(c(Cl)c3)Oc3cc2cc(c3O[C@@H]2O[C@H](CO)[C@@H](O)[C@H](O)[C@H]2O[C@H]2C[C@](C)(N)[C@H](O)[C@H](C)O2)Oc2ccc(cc2Cl)[C@H]1O [Vancomycin hydrochloride],fold induction at 50 µM,"[1]; read-out: AK-based Prestwick Library Screening Results, E. faecium (increase in extracellular AK activity)",1.5
same,fold induction at 50 µM,"[3]; read-out: AK-based Prestwick Library Screening Results, K. pneumoniae (increase in extracellular AK activity)",0.8
same,fold induction at 50 µM,"[4]; read-out: AK-based Prestwick Library Screening Results, A. baumannii (increase in extracellular AK activity)",1.1
same,fold induction at 50 µM,"[5]; read-out: AK-based Prestwick Library Screening Results, P. aeruginosa (increase in extracellular AK activity)",0.9
same,fold induction at 50 µM,"[6]; read-out: AK-based Prestwick Library Screening Results, E. cloacae (increase in extracellular AK activity)",0.9
same,fold induction at 50 µM,"[7]; read-out: AK-based Prestwick Library Screening Results, E. coli (increase in extracellular AK activity)",1.2
